Where a name gives a salt, the structure may show the parent alone.
Tests used:
[1] = target: T1, SHIP2 immunoprecipitated from the lysates of hepatoma cells (Rattus norvegicus, UniProt Q9WVR3); experiment: Activity of SHIP2 immunoprecipitated from hepatoma cells; format: cell-based; settings: 10 µM, 20–24 h
T1 construct: endogenous in cells; host or cells: Fao hepatoma cells
T1 sequence (Q9WVR3 1-1257): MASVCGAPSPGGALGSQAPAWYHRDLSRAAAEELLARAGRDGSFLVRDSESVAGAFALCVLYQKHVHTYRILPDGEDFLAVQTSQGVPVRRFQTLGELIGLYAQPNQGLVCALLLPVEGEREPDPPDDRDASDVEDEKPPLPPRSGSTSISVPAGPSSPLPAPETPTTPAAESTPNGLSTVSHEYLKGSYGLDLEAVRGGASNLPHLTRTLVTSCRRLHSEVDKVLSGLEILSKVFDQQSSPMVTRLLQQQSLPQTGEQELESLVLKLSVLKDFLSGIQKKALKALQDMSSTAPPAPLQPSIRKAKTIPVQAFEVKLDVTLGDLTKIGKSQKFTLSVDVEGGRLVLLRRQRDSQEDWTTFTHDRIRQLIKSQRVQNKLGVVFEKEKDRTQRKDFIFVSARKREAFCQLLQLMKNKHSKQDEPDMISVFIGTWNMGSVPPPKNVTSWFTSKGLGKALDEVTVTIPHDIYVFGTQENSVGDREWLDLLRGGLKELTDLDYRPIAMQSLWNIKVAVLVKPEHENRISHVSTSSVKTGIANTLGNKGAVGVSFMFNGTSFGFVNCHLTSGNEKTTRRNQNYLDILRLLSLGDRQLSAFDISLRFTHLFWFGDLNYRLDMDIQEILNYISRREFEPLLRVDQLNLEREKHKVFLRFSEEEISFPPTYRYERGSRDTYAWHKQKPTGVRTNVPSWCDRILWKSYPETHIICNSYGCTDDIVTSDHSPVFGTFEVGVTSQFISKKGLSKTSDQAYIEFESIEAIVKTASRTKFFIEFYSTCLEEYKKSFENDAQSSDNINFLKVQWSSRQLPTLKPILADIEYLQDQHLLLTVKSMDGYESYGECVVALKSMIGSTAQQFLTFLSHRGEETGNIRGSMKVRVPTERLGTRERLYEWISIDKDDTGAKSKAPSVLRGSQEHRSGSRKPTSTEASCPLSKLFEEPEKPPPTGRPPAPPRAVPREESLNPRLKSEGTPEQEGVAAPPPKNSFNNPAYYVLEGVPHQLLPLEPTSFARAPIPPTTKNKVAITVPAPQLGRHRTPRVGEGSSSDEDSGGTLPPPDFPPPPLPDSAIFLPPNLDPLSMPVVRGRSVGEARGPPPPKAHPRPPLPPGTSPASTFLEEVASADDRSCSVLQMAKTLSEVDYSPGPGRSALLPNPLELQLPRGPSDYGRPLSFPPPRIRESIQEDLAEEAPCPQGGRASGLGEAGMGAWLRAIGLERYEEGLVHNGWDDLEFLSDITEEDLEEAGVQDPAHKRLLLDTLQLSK
Method: (§4) Immunocomplexes were bound to protein G-Sepharose beads at +4°C for 2 h and washed 3 times with malachite green phosphate assay buffer {10 mM 4-(2-hydroxyethyl)-1-piperazineethanesulfonic acid (HEPES), pH 7.25, 6 mM MgCl2, 0.1% 3-[(3-cholamidopropyl)dimethylammonio]-1-propanesulfonate (CHAPS), 250 mM sucrose, and 0.25 mM EDTA}.
The catalytic activity of SHIP2 immunoprecipitated from cell and tissue lysates was determined as in Saurus et al. ([22]), omitting SHIP2 inhibitors in lysis buffer, immunoprecipitation reaction, wash, and assay buffers.

[2] = system: podocytes in kidneys of patients with T2D; experiment: Podocyte number per glomerulus (WT1-positive cells) in patient kidneys; format: in vivo, human; settings: compared with people without T2D; WT1-positive cells per glomeruli
Description: The use of human material was approved by the local Ethics Committee, and written, informed consent was received from study participants. Paraffin sections were stained with anti-SHIP2 (I-20) as in Hyvonen et al. ([10]) or anti- Wilms tumor protein 1 (WT1; Santa Cruz Biotechnology) using the Brightvision Poly-HRP-anti-Rabbit IgG kit (ImmunoLogic, Amsterdam, The Netherlands) and 3,3′-diaminobenzidine (Dako Cytomation, Carpinteria, CA, USA). Slides were counterstained with hematoxylin and digitally scanned with 3DHistech Pannoramic 250 FLASH II (3DHistech, Budapest, Hungary) at the Genome Biology Unit (University of Helsinki). Quantification of SHIP2 staining intensity was performed with the HistoQuant module (3DHistech). Podocyte number was estimated by counting the number of WT1-positive cells per glomerular cross-section in 10 glomeruli per patient in a blinded manner, as described in Guo et al. ([24]). Only glomeruli larger than 170 µm in diameter were examined to ensure sectioning through the center of each glomerulus.
Kidney samples were lysed, and the enzymatic activity of immunoprecipitated SHIP2 was analyzed by malachite green phosphate assay (n = 4–7). […] Ten randomly chosen glomeruli were analyzed from each patient (n = 6–7). […] Podocyte number per glomeruli was quantified by counting WT1-positive cells. Ten randomly chosen glomeruli were analyzed from each patient (n = 9–30).

[3] = system: SHIP2 expression level; experiment: Immunoblot of SHIP2 expression in cultured cells; format: cell-based, rat, human; settings: 2 mM, 20–24 h; myotubes, podocytes, hepatoma cells
Description: Rat L6 myoblasts (American Type Culture Collection, Manassas, VA, USA) and hepatoma cells (Fao Cells, Culture Collection; Public Health England, Salisbury, United Kingdom) were maintained according to the provider’s instructions. L6 myoblasts stably expressing hemagglutinin-GLUT4-green fluorescent protein (HA-GLUT4-GFP, referred to as L6-GLUT4) were generated, as previously described ([19]). Immortalized human podocytes were maintained as previously described ([10]). Lentiviral infection was used to overexpress or knock down transiently SHIP2 in cultured cells on d 10–12 of differentiation for 48 h (basal level) or 72 h (insulin stimulation), as previously described ([10], [20]). Human pLKO1-short hairpin RNA (shRNA) SHIP2 ([sequence]) was obtained from Functional Genomics Unit, University of Helsinki. […] Podocytes were lysed as previously described ([21]). Myotubes, hepatoma cells, and tissues were lysed and immunoblotting performed as in Tolvanen et al. ([19]) with anti-SHIP2 and anti-AMPK (Santa Cruz Biotechnology, Dallas, TX, USA); anti-phospho (p)Akt (S473), anti-pAMPK (Thr172), anti-AMPK, and anti-cleaved caspase-3 (Cell Signaling Technology, Danvers, MA, USA); anti-Pan Akt (R&D Systems, Minneapolis, MN, USA); anti-tubulin, anti-Glut4, and anti-Glut1 (MilliporeSigma, Burlington, MA, USA); and anti-actin (Abcam, Cambridge, United Kingdom).

[4] = system: Akt phosphorylation (pAkt S473); experiment: Immunoblot of Akt phosphorylation in cultured cells; format: cell-based, rat, human; settings: 2 mM, 20–24 h
Method: Lentiviral infection was used to overexpress or knock down transiently SHIP2 in cultured cells on d 10–12 of differentiation for 48 h (basal level) or 72 h (insulin stimulation), as previously described ([10], [20]). […] Podocytes were lysed as previously described ([21]). Myotubes, hepatoma cells, and tissues were lysed and immunoblotting performed as in Tolvanen et al. ([19]) with anti-SHIP2 and anti-AMPK (Santa Cruz Biotechnology, Dallas, TX, USA); anti-phospho (p)Akt (S473), anti-pAMPK (Thr172), anti-AMPK, and anti-cleaved caspase-3 (Cell Signaling Technology, Danvers, MA, USA); anti-Pan Akt (R&D Systems, Minneapolis, MN, USA); anti-tubulin, anti-Glut4, and anti-Glut1 (MilliporeSigma, Burlington, MA, USA); and anti-actin (Abcam, Cambridge, United Kingdom).
Cell lysates were subjected to immunoblot analysis with anti-SHIP2, anti-cleaved caspase-3, and anti-actin IgGs. […] Cell lysates were subjected to immunoblot analysis with anti-SHIP2, anti-Akt, anti-pAkt, and anti-actin IgGs. G) Quantification of pAkt levels in F presented as pAkt/Akt after normalizing to actin. Data are presented as the mean ± SD of 3–5 independent experiments. *P ≤ 0.05, **P ≤ 0.01, ***P ≤ 0.001 (Student’s t test).

[5] = system: PCK1 and G6Pase mRNA; experiment: Quantitative RT-PCR of gluconeogenesis genes in db/db mice; format: in vivo, mouse; settings: 250 mg/kg per day, 12 d
Description: At the end of the experiment, mice were euthanized. […]
The expression levels of the rate-
analyzed by quantitative RT-PCR (n=6).
internal controls for liver and kidney, respectively. The bars show the mean expres sion in arbitrary

[6] = system: L6-GLUT4 myotubes; experiment: Glucose uptake assay in L6-GLUT4 myotubes; format: cell-based, rat; settings: metformin 2 mM
Method: (§1) Immortalized human podocytes were maintained as previously described ([10]). […] Podocytes were lysed as previously described ([21]).
(§2) Glucose uptake assay and On-Cell Western were performed essentially as in Tolvanen et al. ([19]). […] Cells were transferred on ice; incubated with anti-HA IgG in serum-free medium for 15 min, followed by additional incubation in fresh cell differentiation medium for 15 min at +37°C; and fixed with 2% paraformaldehyde for 20 min. Cells were incubated with IRDye 800 donkey anti-mouse IgG and nuclear marker DRAQ-5 (Thermo Fisher Scientific). Detection and quantitation were performed with the Odyssey Infrared Imager (Li-Cor Biosciences, Lincoln, NE, USA).
(§3) L6-GLUT4 myotubes overexpressing SHIP2 were treated and glucose uptake performed as described in C. […] Time point 15 min indicates the amount of HA detected on the cells after 15 min internalization.

[7] = system: HA-GLUT4-GFP at the plasma membrane of L6-GLUT4 cells; experiment: On-Cell Western and HA-GLUT4-GFP endocytosis assay in L6-GLUT4 cells; format: cell-based, rat; settings: 20–24 h
Method: as §2
C) Knockdown of SHIP2 reduces metformin-induced glucose uptake. […] L6-GLUT4 myotubes overexpressing SHIP2 were treated and glucose uptake performed as described in C. […] Time point 15 min indicates the amount of HA detected on the cells after 15 min internalization.

[8] = system: Immortalized human podocytes; experiment: Glucose uptake assay in podocytes; format: cell-based
Method: as §1, §2, §3

[9] = target: T2, purified His-tagged SHIP2 phosphatase domain (Homo sapiens, UniProt O15357); experiment: Manual malachite green phosphate assay (96-well), purified SHIP2 phosphatase domain; format: biochemical; settings: 10 µM; 100 ng enzyme; manual assay (Fig. 1B)
T2 construct: we produced a His-tagged human SHIP2 phosphatase domain; His; made in house
T2 sequence (O15357 419-732 limits assumed): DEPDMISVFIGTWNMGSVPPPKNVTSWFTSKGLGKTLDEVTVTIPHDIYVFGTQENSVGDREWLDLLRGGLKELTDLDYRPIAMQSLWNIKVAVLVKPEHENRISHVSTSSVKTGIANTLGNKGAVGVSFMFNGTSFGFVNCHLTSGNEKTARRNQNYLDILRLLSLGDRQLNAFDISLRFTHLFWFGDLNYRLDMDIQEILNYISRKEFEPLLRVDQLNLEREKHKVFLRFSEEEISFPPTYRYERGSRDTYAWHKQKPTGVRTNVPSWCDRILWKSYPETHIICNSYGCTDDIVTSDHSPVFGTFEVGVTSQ
Method: as §4
The catalytic activities of the recombinant SHIP2 and SHIP1 phosphatase domains were determined by malachite green phosphate assay at the High Throughput Biomedicine Unit (University of Helsinki) using D-myo-PI(3,4,5)P3 (Echelon Biosciences, Salt Lake City, UT, USA). Different volumes, resulting in desired final concentrations of inhibitors, were transferred to the wells of 384-well plates by using the Echo550 acoustic dispenser (Labcyte, San Jose, CA, USA). Recombinant protein (100 ng) in reaction buffer {10 mM HEPES, pH 7.25, 6 mM MgCl2, 0.1% CHAPS, 250 mM sucrose, and 0.25 mM EDTA} was placed in each well (7.5 µl), and the plates were preincubated at room temperature for 15 min. The phosphatase reaction was started by adding PI(3,4,5)P3 diluted in the reaction buffer (7.5 µl) to each well to reach a final concentration of 100 µM PI(3,4,5)P3 in the 15 µl reaction volume. […] Absorbance was measured at 620 nm using a Pherastar FS plate reader (BMG Labtech, Offenburg, Germany). […]
The catalytic activity of SHIP2 was measured by manual malachite green phosphate assay. […]

[10] = system: SHIP2-overexpressing podocytes; experiment: Apoptosis of SHIP2-overexpressing podocytes (cleaved caspase-3 immunoblot, Annexin V flow cytometry); format: cell-based, human; settings: 2 mM, 48 h
Method: Immortalized human podocytes were maintained as previously described ([10]). Lentiviral infection was used to overexpress or knock down transiently SHIP2 in cultured cells on d 10–12 of differentiation for 48 h (basal level) or 72 h (insulin stimulation), as previously described ([10], [20]). […] Apoptosis was measured by flow cytometry using the Annexin V-FITC Apoptosis Kit (Becton Dickinson, Franklin Lakes, NJ, USA) and double staining with 7-aminoactinomycin D (Becton Dickinson), as previously described ([10]). Podocytes were lysed as previously described ([21]). Myotubes, hepatoma cells, and tissues were lysed and immunoblotting performed as in Tolvanen et al. ([19]) with anti-SHIP2 and anti-AMPK (Santa Cruz Biotechnology, Dallas, TX, USA); anti-phospho (p)Akt (S473), anti-pAMPK (Thr172), anti-AMPK, and anti-cleaved caspase-3 (Cell Signaling Technology, Danvers, MA, USA); anti-Pan Akt (R&D Systems, Minneapolis, MN, USA); anti-tubulin, anti-Glut4, and anti-Glut1 (MilliporeSigma, Burlington, MA, USA); and anti-actin (Abcam, Cambridge, United Kingdom).
Cell lysates were subjected to immunoblot analysis with anti-SHIP2, anti-cleaved caspase-3, and anti-actin IgGs. […] B, C) Quantification of SHIP2 and cleaved caspase-3 levels in A, normalized to actin. […] Apoptosis was measured by flow cytometry using Annexin V-FITC and 7-aminoactinomycin D (7AAD) double staining. […]

[11] = 20–24 h, insulin 100 nM, 15 min

## C[C@H](NC(=O)c1sccc1OCc1ccc(Cl)cc1)c1ccccc1 [AS1949490]
[1]
  inhibition of SHIP2 in hepatoma cells: did not inhibit

## CN(C)C(=N)N=C(N)N [Metformin, 1,1-Dimethylbiguanide hydrochloride]
[2]
  podocyte loss in metformin-receiving patients: 11%
[3]
  effect on SHIP2 expression level in cultured cells: no effect
[4]; insulin 200 nM, 15 min
  insulin-induced Akt phosphorylation in SHIP2-overexpressing podocytes: restored its activity
[4]; myotubes and podocytes
  Akt phosphorylation (activity) in basal state: did not increase
[5]
  G6Pase mRNA level in kidney: increased
  G6Pase mRNA level in liver: decreased
  PCK1 mRNA level in kidney: increased
  PCK1 mRNA level in liver: decreased
[6]; SHIP2 shRNA, 20–24 h, insulin 100 nM, 15 min
  increase in insulin-stimulated glucose uptake, SHIP2 knockdown: 109%
[6]; control shRNA, 20–24 h, insulin 100 nM, 15 min
  increase in glucose uptake in L6-GLUT4 myotubes: 148%
[6]; [11]
  increase in glucose uptake in empty vector-transfected myotubes: 155%
  increase in insulin-stimulated glucose uptake, SHIP2 overexpression: 76%
[6]; 20–24 h, serum-starved
  increase in glucose uptake in L6-GLUT4 cells: 218%
[6]; 20–24 h plus insulin 100 nM, 15 min
  glucose uptake in L6-GLUT4 cells, metformin together with insulin: did not have an additive effect
[7]; L6-GLUT4 cells, basal conditions, 2 mM
  increase in amount of HA-GLUT4-GFP on the PM: 40%
[7]; metformin 2 mM
  decrease in amount of HA-GLUT4-GFP on the PM after 15 min uptake (endocytosis): 10%
[8]
  increase in glucose uptake in podocytes: 52%
  increase in glucose uptake in podocytes, metformin together with insulin: 80%
[9]
  reduction of catalytic activity of recombinant SHIP2 phosphatase domain: 44%
[10]
  cleaved caspase-3 level in SHIP2-overexpressing podocytes: back to the level in the control
  level of apoptosis (Annexin V, flow cytometry) in SHIP2-overexpressing podocytes: back to the level of the control
